Structures can show the parent of a compound that is named as a salt.
These compounds were tested against PHD2 (Homo sapiens, UniProt Q9GZT9) (assay: PHD2 / HIF-1α peptide hydroxylation assay with time resolved fluorescence readout (PHD2 binding activity)). Conditions: FLAG-tagged full length PHD2; 0.2 μM 2-oxoglutarate, 0.5 μM HIF-1α peptide; read-out: PHD2 Activity (PHD2 binding activity expressed as IC50).
Format: biochemical
Experimental: After a 30 min preincubation at room temperature, the enzymatic reactions were initiated by the addition of 4 μL of substrates (final concentrations of 0.2 μM 2-oxoglutarate and 0.5 μM HIF-1α peptide biotinyl-DLDLEMLAPYIPMDDDFQL). After 2 hr at room temperature, the reactions were terminated and signals were developed by the addition of a 25 μL quench/detection mix to a final concentration of 1 mM ortho-phenanthroline, 0.1 mM EDTA, 0.5 nM anti-(His)6 LANCE reagent (Perkin-Elmer Life Sciences), 100 nM AF647-labeled streptavidin (Invitrogen), and 2 μg/ml (His)6-VHL complex (S. Tan(2001) Protein Expr. Purif 21, 224-234). The ratio of time resolved fluorescence signals at 665 and 620 nm was determined, and percent inhibition was calculated relative to an uninhibited control sample run in parallel.

Chain of PHD2 (Q9GZT9 whole entry): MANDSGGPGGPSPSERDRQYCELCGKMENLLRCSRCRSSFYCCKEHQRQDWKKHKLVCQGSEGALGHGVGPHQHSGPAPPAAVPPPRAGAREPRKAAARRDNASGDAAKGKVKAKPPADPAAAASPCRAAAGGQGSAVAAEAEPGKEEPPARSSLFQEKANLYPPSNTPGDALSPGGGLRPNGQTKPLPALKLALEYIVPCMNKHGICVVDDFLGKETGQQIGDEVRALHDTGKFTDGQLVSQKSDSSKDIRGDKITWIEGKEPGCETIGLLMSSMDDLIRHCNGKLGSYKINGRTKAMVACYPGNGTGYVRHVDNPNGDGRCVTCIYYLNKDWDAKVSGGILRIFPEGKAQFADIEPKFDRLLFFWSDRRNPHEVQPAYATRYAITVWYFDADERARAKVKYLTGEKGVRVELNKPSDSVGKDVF

Structure (SMILES)	IC50 [nM]
CC1c2c(c(O)c(C(=O)NCC(=O)O)c(=O)n2Cc2ccc(-c3ccccc3)cc2)CN1C(=O)c1cscn1 (single isomer, unassigned) [55 Enantiomer 1]	< 10
CC1c2c(c(O)c(C(=O)NCC(=O)O)c(=O)n2Cc2ccc(-c3ccccc3)cc2)CN1C(=O)c1cscn1 (single isomer, unassigned) [55 Enantiomer 2]	10 to 100
C=CCCC(=O)N1Cc2c(O)c(C(=O)NCC(=O)O)c(=O)n(Cc3ccc(C(F)(F)F)cc3)c2C1 [Example 1, N-({4-hydroxy-2-oxo-6-pent-4-enoyl-1-[4-(trifluoromethyl)benzyl]-2,5,6,7-tetrahydro-1H-pyrrolo[3,4-b]pyridin-3-yl}carbonyl)glycine]	< 10
C=CCCC(=O)N1Cc2c(O)c(C(=O)NCC(=O)O)c(=O)n(Cc3ccc(-c4ccccc4)cc3)c2C1 [Example 2, N-{[1-(biphenyl-4-ylmethyl)-4-hydroxy-2-oxo-6-pent-4-enoyl-2,5,6,7-tetrahydro-1H-pyrrolo[3,4-b]pyridin-3-yl]carbonyl}glycine]	< 10
C=CCCC(=O)N1Cc2c(O)c(C(=O)NCC(=O)O)c(=O)n(Cc3nc4ccccc4s3)c2C1 [Example 3, N-{[1-(1,3-benzothiazol-2-ylmethyl)-4-hydroxy-2-oxo-6-pent-4-enoyl-2,5,6,7-tetrahydro-1H-pyrrolo[3,4-b]pyridin-3-yl]carbonyl}glycine]	< 10
C=CCCC(=O)N1Cc2c(O)c(C(=O)NCC(=O)O)c(=O)n(Cc3cccc(Br)c3)c2C1 [Example 4, N-{[1-(3-bromobenzyl)-4-hydroxy-2-oxo-6-pent-4-enoyl-2,5,6,7-tetrahydro-1H-pyrrolo[3,4-b]pyridin-3-yl]carbonyl}glycine]	< 10
C=CCCC(=O)N1Cc2c(O)c(C(=O)NCC(=O)O)c(=O)n(Cc3ccc(Br)cc3)c2C1C (stereo not shown) [Example 5, N-{[1-(4-bromobenzyl)-4-hydroxy-7-methyl-2-oxo-6-pent-4-enoyl-2,5,6,7-tetrahydro-1H-pyrrolo[3,4-b]pyridin-3-yl]carbonyl}glycine]	< 10
C=CCCC(=O)N1Cc2c(c(O)c(C(=O)NCC(=O)O)c(=O)n2Cc2ccc(Br)cc2)C1C (stereo not shown) [Example 6, N-{[1-(4-bromobenzyl)-4-hydroxy-5-methyl-2-oxo-6-pent-4-enoyl-2,5,6,7-tetrahydro-1H-pyrrolo[3,4-b]pyridin-3-yl]carbonyl}glycine]	< 10
O=C(O)CNC(=O)c1c(O)c2c(n(Cc3ccc(C(F)(F)F)cc3)c1=O)CNC2 [Example 7, N-({4-hydroxy-2-oxo-1-[4-(trifluoromethyl)benzyl]-2,5,6,7-tetrahydro-1H-pyrrolo[3,4-b]pyridin-6-ium-3-yl}carbonyl)glycine trifluoroacetate]	< 10
O=C(O)CNC(=O)c1c(O)c2c(n(Cc3ccc(C(F)(F)F)cc3)c1=O)CN(C(=O)c1cccc(Cl)c1)C2 [Example 8, N-({6-(3-chlorobenzoyl)-4-hydroxy-2-oxo-1-[4-(trifluoromethyl)benzyl]-2,5,6,7-tetrahydro-1H-pyrrolo[3,4-b]pyridin-3-yl}carbonyl)glycine]	< 10
CC(=O)N1Cc2c(O)c(C(=O)NCC(=O)O)c(=O)n(Cc3ccc(C(F)(F)F)cc3)c2C1 [Example 9, N-({6-acetyl-4-hydroxy-2-oxo-1-[4-(trifluoromethyl)benzyl]-2,5,6,7-tetrahydro-1H-pyrrolo[3,4-b]pyridin-3-yl}carbonyl)glycine]	< 10
CS(=O)(=O)N1Cc2c(O)c(C(=O)NCC(=O)O)c(=O)n(Cc3ccc(C(F)(F)F)cc3)c2C1 [Example 10, N-({4-hydroxy-6-(methylsulfonyl)-2-oxo-1-[4-(trifluoromethyl)benzyl]-2,5,6,7-tetrahydro-1H-pyrrolo[3,4-b]pyridin-3-yl}carbonyl)glycine]	< 10
O=C(O)CNC(=O)c1c(O)c2c(n(Cc3ccc(C(F)(F)F)cc3)c1=O)CN(C(=O)N1CCOCC1)C2 [Example 11, N-({4-hydroxy-6-(morpholin-4-ylcarbonyl)-2-oxo-1-[4-(trifluoromethyl)benzyl]-2,5,6,7-tetrahydro-1H-pyrrolo[3,4-b]pyridin-3-yl}carbonyl)glycine]	< 10
CN(C)S(=O)(=O)N1Cc2c(O)c(C(=O)NCC(=O)O)c(=O)n(Cc3ccc(C(F)(F)F)cc3)c2C1 [Example 12, N-({6-[(dimethylamino)sulfonyl]-4-hydroxy-2-oxo-1-[4-(trifluoromethyl)benzyl]-2,5,6,7-tetrahydro-1H-pyrrolo[3,4-b]pyridin-3-yl}carbonyl)glycine]	< 10
COCC(=O)N1Cc2c(O)c(C(=O)NCC(=O)O)c(=O)n(Cc3ccc(C(F)(F)F)cc3)c2C1 [Example 14, N-({4-hydroxy-6-(methoxyacetyl)-2-oxo-1-[4-(trifluoromethyl)benzyl]-2,5,6,7-tetrahydro-1H-pyrrolo[3,4-b]pyridin-3-yl}carbonyl)glycine]	< 10
CC(C)(C)C(=O)N1Cc2c(O)c(C(=O)NCC(=O)O)c(=O)n(Cc3ccc(C(F)(F)F)cc3)c2C1 [Example 15, N-({6-(2,2-dimethylpropanoyl)-4-hydroxy-2-oxo-1-[4-(trifluoromethyl)benzyl]-2,5,6,7-tetrahydro-1H-pyrrolo[3,4-b]pyridin-3-yl}carbonyl)glycine]	< 10
CCOC(=O)N1Cc2c(O)c(C(=O)NCC(=O)O)c(=O)n(Cc3ccc(C(F)(F)F)cc3)c2C1 [Example 16, N-({6-(ethoxycarbonyl)-4-hydroxy-2-oxo-1-[4-(trifluoromethyl)benzyl]-2,5,6,7-tetrahydro-1H-pyrrolo[3,4-b]pyridin-3-yl}carbonyl)glycine]	< 10
O=C(O)CNC(=O)c1c(O)c2c(n(Cc3ccc(C(F)(F)F)cc3)c1=O)CN(C(=O)N1CCCC1)C2 [Example 17, N-({4-hydroxy-2-oxo-6-(pyrrolidin-1-ylcarbonyl)-1-[4-(trifluoromethyl)benzyl]-2,5,6,7-tetrahydro-1H-pyrrolo[3,4-b]pyridin-3-yl}carbonyl)glycine]	< 10
O=C(O)CNC(=O)c1c(O)c2c(n(Cc3ccc(C(F)(F)F)cc3)c1=O)CN(C(=O)c1ccccc1Cl)C2 [Example 18, N-({6-(2-chlorobenzoyl)-4-hydroxy-2-oxo-1-[4-(trifluoromethyl)benzyl]-2,5,6,7-tetrahydro-1H-pyrrolo[3,4-b]pyridin-3-yl}carbonyl)glycine]	< 10
O=C(O)CNC(=O)c1c(O)c2c(n(Cc3ccc(C(F)(F)F)cc3)c1=O)CN(S(=O)(=O)c1ccccc1)C2 [Example 19, N-({4-hydroxy-2-oxo-6-(phenyl-sulfonyl)-1-[4-(trifluoromethyl)benzyl]-2,5,6,7-tetrahydro-1H-pyrrolo[3,4-b]pyridin-3-yl}carbonyl)glycine]	< 10
O=C(O)CNC(=O)c1c(O)c2c(n(Cc3ccc(C(F)(F)F)cc3)c1=O)CN(C(=O)C1CCCC1)C2 [Example 20, N-({6-(cyclopentylcarbonyl)-4-hydroxy-2-oxo-1-[4-(trifluoromethyl)benzyl]-2,5,6,7-tetrahydro-1H-pyrrolo[3,4-b]pyridin-3-yl}carbonyl)glycine]	< 10

Same assay, conditions: PHD2 Activity (PHD2 binding activity expressed as IC50), FLAG-tagged full length PHD2; 0.2 μM 2-oxoglutarate, 0.5 μM HIF-1α peptide

Structure (SMILES)	IC50 [nM]
O=C(O)CNC(=O)c1c(O)c2c(n(Cc3ccc(C(F)(F)F)cc3)c1=O)CN(C(=O)C1CC1)C2 [Example 13, N-({6-(cyclopropylcarbonyl)-4-hydroxy-2-oxo-1-[4-(trifluoromethyl)benzyl]-2,5,6,7-tetrahydro-1H-pyrrolo[3,4-b]pyridin-3-yl}carbonyl)glycine]	< 10
